The source of these data is patent US20250154129A1, “CRYSTALLINE PHARMACEUTICALLY ACCEPTABLE SALT AND POLYMORPHIC FORM OF THE […] CYCLASE INHIBITOR VAROGLUTAMSTAT” (VIVORYON THERAPEUTICS N.V., priority 2023, published 2025).

A short description of series [1]: Hygroscopicity (DVS) of salt forms from Example 3.2. Format: physicochemical. The settings on record: 1 g scale, isopropanol. The text has this:
(§1) For such salts with a clear stoichiometry, their preparation was then repeated on 1 g scale (free base) in isopropanol with the acid slowly being added followed by seeding (seeds as obtained from the screening experiment). The solids were then further characterized with regard to: • Handling of crystals, • Crystal habit (microscopy, macroscopic): presence and shape of crystals, • Crystallinity (quality of crystals, XRPD), • Thermal analysis (DSC and TGA), • Hygroscopicity (DVS), and • Solubility in water.
VTI-SA by TA Instruments with Isotherm Software for data acquisition and handling, glass sample holder and de-ionised water for vapour production.

The nature of series [2]: Crystallinity by XRPD of salt forms from Example 3.2. It counts as physicochemical. The settings on record: 1 g scale, isopropanol.
Source text: as §1
• Angle: 2θ=2° to 2θ=40° • Sampling width 0.02 • Measurement time: 75 minutes.
Solid was positioned on sample holder, prepared with grease and flattened with a disc of glass.

Series [3] is described as follows: Solubility screen of the hydrochloride salt in single solvents (HPLC of mother liquor). It counts as physicochemical. The note with it: 20° C. As for the experimental part: As a first step, a solubility screen of the hydrochloride salt (obtained from the 1 g scale experiments in Example 3.2) was performed in single solvents as listed in Table 5. This was done in order to identify the most suitable solvents for the process development.
The resulting suspensions were equilibrated for at least 4 hours and the mother liquors sampled for solubility determination by HPLC (see “Description of analytical procedures used in the Examples of the invention” for method details).
• Column: ZORBAX BONUS RP 150 mm×4.6 mm; 3.5 um • Eluent A: 0.05% HCOOH in H2O • Eluent B: 0.05% HCOOH in ACN • Flow 1.00 ml/min • Gradient: 2 min 100% Eluent A, linear increase of Eluent B from 2 to 20 min from 0 to 100% • Detection: UV at 225 nm

Series [4] can be described thus: Solubility in water of salt forms from 1 g scale salt screening in isopropanol. The settings on record: 20° C. Format: physicochemical.
Source text: as §1

The next series deals with CCL2/CCR2 axis. The settings on record: three-week repeated administration, 30 and 100 mg/kg, twice daily; dose-dependent; cited from earlier work.
A short description of series [5]: pKa of Varoglutamstat (weak base). Format: physicochemical.
Series [6] is described as follows: Solubility screening of the Varoglutamstat free base (HPLC of mother liquor). Format: physicochemical. On the procedure:
75 mg of solid were transferred into a glass vial, a magnetic stir bar and 1.5 ml of solvent were added. […] The vials were then cooled to 20° C. and stirred for another 30 min. When completely dissolved, additional solid material was added, and the vial equilibrated for at least 3 hours at 20° C.
The mother liquor was sampled and analyzed for content via HPLC versus an external standard solution (1-point calibration).
• Column: PHENOMENEX LUNA C18, 50×4.6 mm, 3 μm, • Mobile phase A: 0.05% TFA in water, • Mobile phase B: 0.05% TFA in acetonitrile. • Gradient: 10% to 90% B in 10 min, 2 min hold, re-equilibrate to initial gradient composition. • Flow: 1.0 mL/min. • Detection: UV at 225 nm.

In series [7] the test system is mice doubly transgenic for human APP and human glutaminyl cyclase. The settings on record: chronic oral dosing; cited from earlier work.
In the next series the test system is Aβ soluble protofibrils. The settings on record: adult patients with early Alzheimer disease; cited from earlier work.
Where [8] appears, read: DMSO, solution obtained: solubility identical or higher than 50 mg/mL.
Where [9] appears, read: MeOH, solution obtained: solubility identical or higher than 50 mg/mL.
Setting [10] is: Water, solution obtained: solubility identical or higher than 50 mg/mL.

In the case of Oxalate, the hygroscopicity entry in [1] is given as “high”. The “crystallinity (by XRPD)” value in series [2] is given as “low”.

As to `CCCOc1ccc([C@H]2CNC(=O)N2c2ccc3[nH]cnc3c2)cc1.Cl` [Varoglutamstat Hydrochloride, (S)-1-(1H-benzo[d]imidazol-5-yl)-5-(4-propoxyphenyl) imidazolidin-2-one hydrochloride], the ML free base in series [3] (ACN) turned out to be 0.1 mg/mL; in series [3] (Acetone), 0.1 mg/mL; in series [3] (setting [8]), 51.7 mg/mL; in series [3] (EtOAc), 0.0 mg/mL; in series [3] (EtOH) it was 41.3 mg/mL; in series [3] (Heptane), 0.0 mg/mL. Also, the ML free base in [3] (IPA) was determined as 3.6 mg/mL; in series [3] (IPrOAc) it was 0.0 mg/mL; in series [3] (MEK) it was 0.0 mg/mL; in series [3] (MIBK), 0.1 mg/mL; in series [3] (Me-THF), 0.0 mg/mL; in [3] (setting [9]), 47.5 mg/mL. Moreover, the ML free base was 0.0 mg/mL in series [3] (TBME); 0.0 mg/mL in [3] (THF); 0.1 mg/mL in series [3] (Toluene); 52.0 mg/mL in series [3] (setting [10]); 3.9 mg/mL in series [3] (nBuOH); 10.4 mg/mL in series [3] (nPrOH). In addition, the “calculated HCl” value is recorded as 0.1 mg/mL in series [3] (ACN); 0.1 mg/mL in series [3] (Acetone); 57.3 mg/mL in series [3] (setting [8]); 0.0 mg/mL in series [3] (EtOAc); 45.8 mg/mL in series [3] (EtOH); 0.0 mg/mL in series [3] (Heptane). Further, the “calculated HCl” value is on record as 4.0 mg/mL in [3] (IPA); 0.0 mg/mL in [3] (IPrOAc); 0.0 mg/mL in series [3] (MEK); 0.1 mg/mL in series [3] (MIBK); 0.0 mg/mL in series [3] (Me-THF); 52.6 mg/mL in series [3] (setting [9]). Further, the “calculated HCl” value in series [3] (TBME) is on record as 0.0 mg/mL; in [3] (THF) it was 0.0 mg/mL; in series [3] (Toluene), 0.1 mg/mL; in series [3] (setting [10]), 57.6 mg/mL; in series [3] (nBuOH), 4.4 mg/mL; in [3] (nPrOH), 11.5 mg/mL.

Consider `CCCOc1ccc([C@H]2CNC(=O)N2c2ccc3[nH]cnc3c2)cc1` [TosOH], for which the “Solubility in water” value in series [4] (procedure of Example 4.1) came to 3600 µM.

With Fumarate, in [1], the hygroscopicity entry was “high”. Further, the “crystallinity (by XRPD)” value in [2] is recorded as “mediocre”.

Turning to `CCCOc1ccc(C2C(=O)NC(=O)N2c2ccc3[nH]cnc3c2)cc1` (stereo not drawn) [PQ529], in the series with CCL2/CCR2 axis, the “serum and urine CCL2” value is “significantly reduced”; the urinary protein excretion entry is “significantly reduced”.

Consider `CCCOc1ccc([C@H]2CNC(=O)N2c2ccc3[nH]cnc3c2)cc1` [Varoglutamstat free base, (S)-1-(1H-benzo[d]imidazol-5-yl)-5-(4-propoxyphenyl)imidazolidin-2-one], for which, in series [5], the pKa is 4.55. For the same molecule, the “solubility in organic solvents” value is “good” in [6] (methyl-isobutyl-ketone, dichloro-methane, 20° C.) and “poorly soluble or insoluble” in [6] (tert-butyl-methyl-ketone, ethyl-acetate, isopropyl-acetate, heptane, toluene, 20° C.). In addition, the solubility in [6] (organic solvent or mixture, thermodynamic from solid, acetone, tetrahydrofuran, methyl-tetrahydrofuran, methyl-ethylketone, 2-pentanone, acetonitrile, dimethylsulfoxide, methanol, ethanol, isopropanol, n-propanol, n-butanol, 20° C., read-out: excellent solubility in organic solvents) was at least 30 mg/mL. For the same molecule, in [6] (thermodynamic from solid, water, equilibrated at 20° C.), the solubility at 30 min is below 1 mg/mL. In addition, the “Solubility in water” value was “almost insoluble” in series [6] (water, forms a sticky/oily suspension) and 890 µM in series [4] (procedure of Example 4.1, listed as free base). Besides, the “brain pyroglutamate Aβ” value in [7] is “reduce”. Also, in series [7], the “recall in the Morris water maze test of spatial memory” value was “improve”.

B1: Leqembi: humanized IgG1 monoclonal antibody which binds to Aβ soluble protofibrils with high affinity (antibody, chains of the INN, looked up, V domains shown)
VH: EVQLVESGGGLVQPGGSLRLSCSASGFTFSSFGMHWVRQAPGKGLEWVAYISSGSSTIYYGDTVKGRFTISRDNAKNSLFLQMSSLRAEDTAVYYCAREGGYYYGRSYYTMDYWGQGTTVTVSS
VL: DVVMTQSPLSLPVTPGAPASISCRSSQSIVHSNGNTYLEWYLQKPGQSPKLLIYKVSNRFSGVPDRFSGSGSGTDFTLRISRVEAEDVGIYYCFQGSHVPPTFGPGTKLEIK
B1: in the series with Aβ soluble protofibrils, the brain amyloid entry is “reduce” and the cognitive decline result is given as “modestly slow”.

What is called pKa is the negative logarithm of the acid dissociation constant. The low end stands for a group that gives up its proton readily, the high end for a group that holds its proton tightly. Broadly, the solubility is how much of the substance goes into solution per volume.
